Measured values: ChEMBL document CHEMBL1159211, “Antifungal evaluation of pseudolaric acid B, a major constituent of Pseudolarix kaempferi” (J Nat Prod, 1995)
Converted amounts (≈) assume the structure as drawn.

Tests used:
Candida albicans [1] = experiment: Antimicrobial activity against Candida albicans at 1 mg/mL by agar-well diffusion assay; type: functional
Aspergillus fumigatus = experiment: Antimicrobial activity against Aspergillus fumigatus at 1 mg/mL by agar-well diffusion assay; type: functional
[2] = tested on: Trichophyton mentagrophytes; experiment: Antimicrobial activity against Trichophyton mentagrophytes at 1 mg/mL by agar-well diffusion assay; type: functional
Nannizzia gypsea = experiment: Antimicrobial activity against Microsporum gypseum at 1 mg/mL by agar-well diffusion assay; type: functional
Candida albicans [3] = experiment: Antifungal activity against Candida albicans B311 at 1 mg/mL by agar-well diffusion assay; type: functional
Candida albicans [4] = experiment: Antifungal activity against Candida albicans ATCC 10231 at 1 mg/mL by agar-well diffusion assay; type: functional
Starmerella magnoliae = experiment: Antifungal activity against Candida magnoliae ATCC 12573 at 1 mg/mL by agar-well diffusion assay; type: functional
Candida parapsilosis [5] = experiment: Antifungal activity against Candida parapsilosis ATCC 20224 at 1 mg/mL by agar-well diffusion assay; type: functional
Candida albicans [6] = experiment: Antifungal activity against Candida stellatoidea SA-I at 1 mg/mL by agar-well diffusion assay; type: functional
Candida tropicalis [7] = experiment: Antifungal activity against Candida tropicalis ATCC 20326 at 1 mg/mL by agar-well diffusion assay; type: functional
Candida tropicalis [8] = experiment: Antifungal activity against Candida tropicalis ATCC 20021 at 1 mg/mL by agar-well diffusion assay; type: functional
Candida tropicalis [9] = experiment: Antifungal activity against Candida tropicalis LM 64 at 1 mg/mL by agar-well diffusion assay; type: functional
Yarrowia deformans [10] = experiment: Antifungal activity against Torulopsis petrophilum ATCC 20225 at 1 mg/mL by agar-well diffusion assay; type: functional
Torula [11] = experiment: Antifungal activity against Torula cremoris NRRL 7495 at 1 mg/mL by agar-well diffusion assay; type: functional
Candida albicans [12] = experiment: Antifungal activity against Candida albicans B311 by twofold serial broth dilution method; type: functional
Candida albicans [13] = experiment: Antifungal activity against Candida albicans ATCC 10231 by twofold serial broth dilution method; type: functional
Candida parapsilosis [14] = experiment: Antifungal activity against Candida parapsilosis ATCC 20224 by twofold serial broth dilution method; type: functional; conditions: Lodderomyces parapsilosis
Candida albicans [15] = experiment: Antifungal activity against Candida stellatoidea SA-I by twofold serial broth dilution method; type: functional
Candida tropicalis [16] = experiment: Antifungal activity against Candida tropicalis ATCC 20326 by twofold serial broth dilution method; type: functional
Candida tropicalis [17] = experiment: Antifungal activity against Candida tropicalis ATCC 20021 by twofold serial broth dilution method; type: functional
Candida tropicalis [18] = experiment: Antifungal activity against Candida tropicalis LM 64 by twofold serial broth dilution method; type: functional
Yarrowia deformans [19] = experiment: Antifungal activity against Torulopsis petrophilum ATCC 20225 by twofold serial broth dilution method; type: functional
Torula [20] = experiment: Antifungal activity against Torula cremoris NRRL 7495 by twofold serial broth dilution method; type: functional
Mus musculus [21] = experiment: Toxicity in CD1 mouse assessed as body weight at 40 mg/kg, ip after day 1; type: organism-based; parameters: dose 40 mg/kg, route intraperitoneal; conditions: in vivo
Mus musculus [22] = experiment: Toxicity in CD1 mouse assessed as body weight at 40 mg/kg, ip administered for 14 consecutive days measured after day 14; type: organism-based; parameters: dose 40 mg/kg, route intraperitoneal; conditions: in vivo
Mus musculus [23] = experiment: Toxicity in CD1 mouse assessed as body weight at 40 mg/kg, ip administered for 14 consecutive days measured after day 21; type: organism-based; parameters: dose 40 mg/kg, route intraperitoneal; conditions: in vivo
[24] = tested on: Mycobacterium intracellulare; experiment: Antimicrobial activity against Mycobacterium intracellular at 1 mg/mL by agar-well diffusion assay; type: functional; conditions: read-out: IZ
[25] = Toxicity in iv dosed CD1 mouse; type: organism-based; conditions: in vivo
[26] = Toxicity in ip dosed CD1 mouse; type: organism-based; conditions: in vivo
Mus musculus [27] = experiment: Toxicity in CD1 mouse assessed as unusual behavioral changes at 40 mg/kg, ip administered for 14 consecutive days measured daily for 4 weeks; type: organism-based; parameters: dose 40 mg/kg, route intraperitoneal; conditions: in vivo, 672 h
Candida albicans [28] = experiment: (§1) Antifungal activity against Candida albicans NIH B311 infected in mouse assessed as reduction in number of recovered colony-forming units assessed per mg of kidney at 20 mg/kg, iv administered 18 and 42 hrs after infection measured 16 hrs after final injection by tenfold serial dilution method relative to control; type: functional; parameters: scale not given: the % may be the effect or the level left
Candida albicans [29] = experiment: as §1, with “10” for “20”; type: functional; parameters: scale not given: the % may be the effect or the level left
Candida albicans [30] = experiment: as §1, with “mg/kg, sc” for “mg/kg, iv”, “administered 7” for “administered 18”, “and 24” for “and 42”; type: functional; parameters: scale not given: the % may be the effect or the level left; conditions: route subcutaneous
Candida albicans [31] = experiment: as §1, with “at 10” for “at 20”, “mg/kg, sc” for “mg/kg, iv”, “administered 7” for “administered 18”, “and 24” for “and 42”; type: functional; parameters: scale not given: the % may be the effect or the level left; conditions: route subcutaneous
Candida albicans [32] = experiment: as §1, with “at 3” for “at 20”, “mg/kg, sc” for “mg/kg, iv”, “administered 7” for “administered 18”, “and 24” for “and 42”; type: functional; parameters: scale not given: the % may be the effect or the level left; conditions: route subcutaneous

Compound: COC(=O)C1=CC[C@@]23CC[C@@H]([C@@](C)(/C=C/C=C(\C)C(=O)[O-])OC2=O)[C@@]3(OC(C)=O)CC1.[K+] [POTASSIUM PSEUDOLARATE B]
- inhibition zone (IZ) (Candida albicans [1]): 7 mm
- inhibition zone (IZ) (Aspergillus fumigatus): 3 mm
- inhibition zone (IZ) [2]: 7 mm
- inhibition zone (IZ) (Nannizzia gypsea): 7 mm
- inhibition zone (IZ) (Candida albicans [3]): 7 mm
- inhibition zone (IZ) (Candida albicans [4]): 7 mm
- inhibition zone (IZ) (Starmerella magnoliae): <1 mm
- inhibition zone (IZ) (Candida parapsilosis [5]): 7 mm
- inhibition zone (IZ) (Candida albicans [6]): 7 mm
- inhibition zone (IZ) (Candida tropicalis [7]): 7 mm
- inhibition zone (IZ) (Candida tropicalis [8]): 7 mm
- inhibition zone (IZ) (Candida tropicalis [9]): >12 mm
- inhibition zone (IZ) (Yarrowia deformans [10]): 7 mm
- inhibition zone (IZ) (Torula [11]): 3 mm
- MFC (Candida albicans [12]): 6.25 µg/mL
- MIC (Candida albicans [12]): 3.12 µg/mL
- MFC (Candida albicans [13]): 6.25 µg/mL
- MIC (Candida albicans [13]): 1.56 µg/mL
- MFC (Candida parapsilosis [14]): 25 µg/mL
- MIC (Candida parapsilosis [14]): 3.12 µg/mL
- MFC (Candida albicans [15]): 6.25 µg/mL
- MIC (Candida albicans [15]): 3.12 µg/mL
- MFC (Candida tropicalis [16]): 6.25 µg/mL
- MIC (Candida tropicalis [16]): 1.56 µg/mL
- MFC (Candida tropicalis [17]): 6.25 µg/mL
- MIC (Candida tropicalis [17]): 3.12 µg/mL
- MFC (Candida tropicalis [18]): 6.25 µg/mL
- MIC (Candida tropicalis [18]): 0.78 µg/mL
- MFC (Yarrowia deformans [19]): 12.5 µg/mL
- MIC (Yarrowia deformans [19]): 0.78 µg/mL
- MFC (Torula [20]): 12.5 µg/mL
- MIC (Torula [20]): 12.5 µg/mL
- Activity (Mus musculus [21]): 24.2 g
- Activity (Mus musculus [22]): 25.4 g
- Activity (Mus musculus [23]): 25.6 g

Compound: COC(=O)C1=CC[C@@]23CC[C@@H]([C@@](C)(/C=C/C=C(\C)C(=O)O)OC2=O)[C@@]3(OC(C)=O)CC1 [PSEUDOLARIC ACID B]
- zone of inhibition at 1000 µg/mL (Candida albicans [1]; Candida albicans, read-out: IZ): 7 mm
- zone of inhibition at 1000 µg/mL (Aspergillus fumigatus; Aspergillus fumigatus, read-out: IZ): 3 mm
- zone of inhibition at 1000 µg/mL ([2]; Trichophyton mentagrophytes, read-out: IZ): 7 mm
- zone of inhibition at 1000 µg/mL (Nannizzia gypsea; Nannizzia gypsea, read-out: IZ): 7 mm
- zone of inhibition at 1000 µg/mL [24]: 1 mm
- zone of inhibition at 1000 µg/mL (Candida albicans [3]; Candida albicans, B311, read-out: IZ): 7 mm
- zone of inhibition at 1000 µg/mL (Candida albicans [4]; Candida albicans, ATCC 10231, read-out: IZ): 7 mm
- zone of inhibition at 1000 µg/mL (Starmerella magnoliae; ATCC 12573, read-out: IZ): < 1 mm
- zone of inhibition at 1000 µg/mL (Candida parapsilosis [5]; Lodderomyces parapsilosis, ATCC 20224, read-out: IZ): 7 mm
- zone of inhibition at 1000 µg/mL (Candida albicans [6]; Candida albicans, read-out: IZ): > 12 mm
- zone of inhibition at 1000 µg/mL (Candida tropicalis [7]; Candida tropicalis, ATCC 20326, read-out: IZ): 7 mm
- zone of inhibition at 1000 µg/mL (Candida tropicalis [8]; Candida tropicalis, ATCC 20021, read-out: IZ): 7 mm
- zone of inhibition at 1000 µg/mL (Candida tropicalis [9]; Candida tropicalis, read-out: IZ): > 12 mm
- zone of inhibition at 1000 µg/mL (Yarrowia deformans [10]; Yarrowia deformans, ATCC 20225, read-out: IZ): 7 mm
- zone of inhibition at 1000 µg/mL (Torula [11]; Torula, NRRL 7495, read-out: IZ): 3 mm
- MFC (Candida albicans [12]): 3.12 µg/mL (≈ 7.21 µM)
- MIC (Candida albicans [12]): 1.56 µg/mL (≈ 3.61 µM)
- MFC (Candida albicans [13]): 3.12 µg/mL (≈ 7.21 µM)
- MIC (Candida albicans [13]): 1.56 µg/mL (≈ 3.61 µM)
- MFC (Candida parapsilosis [14]): 12.5 µg/mL (≈ 28.9 µM)
- MIC (Candida parapsilosis [14]): 3.12 µg/mL (≈ 7.21 µM)
- MFC (Candida albicans [15]): 6.25 µg/mL (≈ 14.5 µM)
- MIC (Candida albicans [15]): 1.56 µg/mL (≈ 3.61 µM)
- MFC (Candida tropicalis [16]): 3.12 µg/mL (≈ 7.21 µM)
- MIC (Candida tropicalis [16]): 1.56 µg/mL (≈ 3.61 µM)
- MFC (Candida tropicalis [17]): 3.12 µg/mL (≈ 7.21 µM)
- MIC (Candida tropicalis [17]): 1.56 µg/mL (≈ 3.61 µM)
- MFC (Candida tropicalis [18]): 6.25 µg/mL (≈ 14.5 µM)
- MIC (Candida tropicalis [18]): 0.78 µg/mL (≈ 1.8 µM)
- MFC (Yarrowia deformans [19]): 1.56 µg/mL (≈ 3.61 µM)
- MIC (Yarrowia deformans [19]): 0.78 µg/mL (≈ 1.8 µM)
- MFC (Torula [20]): 12.5 µg/mL (≈ 28.9 µM)
- MIC (Torula [20]): 12.5 µg/mL (≈ 28.9 µM)
- LD50 [25]: 423 mg/kg
- LD50 [26]: 316 mg/kg
- Activity (Mus musculus [27]): Non-toxic
- Activity (Mus musculus [21]): 22.5 g
- Activity (Mus musculus [22]): 24.1 g
- Activity (Mus musculus [23]): 24.7 g
- Activity (Candida albicans [28]): 59.9%
- Activity (Candida albicans [29]): 95.34%
- Activity (Candida albicans [30]): 76.7%
- Activity (Candida albicans [31]): 75%
- Activity (Candida albicans [32]): 70.27%
